Experimental findings from US7666871B2, “Oxazole derivatives as histamine H3 receptor agents, preparation and therapeutic uses” (Eli Lilly and Company, priority 2004, dated 2010) are described below.

In the test the target is T1, human H3R (Homo sapiens, UniProt Q9Y5N1).
T1 construct: expressed in transfected cells; pcDNA3.1(+) vector, G418 selection), membranes
Put plainly: Histamine H3 Receptor Binding Assay (competitive inhibition SPA, membranes of transfected HEK293 cells). The conditions noted are these: Ki's at the human H3R. The text has this:
The compounds of the present invention can readily be evaluated by using a competitive inhibition Scintillation Proximity Assay (SPA) based on a H3R binding assay using R-[3H] α methylhistamine as ligand. Stable cell lines, including but not limited to HEK can be transfected with cDNA coding for H3R to prepare membranes used for the binding assay. The technique is illustrated below (Preparation of Histamine Receptor Subtype Membranes) for the histamine receptor subtypes.
cDNA for the human histamine 1 receptor (H1R) was cloned into a mammalian expression vector containing the CMV promoter (pcDNA3.1(+), Invitogen) and transfected into HEK293 cells using the FuGENE Tranfection Reagent (Roche Diagnostics Corporation). Transfected cells were selected using G418 (500 μ/mL). Colonies that survived selection were grown and tested for histamine binding to cells grown in 96-well dishes using a scintillation proximity assay (SPA) based radioligand binding assay. Briefly, cells, representing individual selected clones, were grown as confluent monolayers in 96-well dishes (Costar Clear Bottom Plates, #3632) by seeding wells with 25,000 cells and growing for 48 hours (37° C., 5% CO2). […] Plates were counted in a Wallac Trilux 1450 Microbeta scintillation counter. […]
cDNA for the human histamine 3 receptor was cloned and expressed as described in (A. Preparation H1R membranes), above. […]

T1 sequence (Q9Y5N1 whole entry): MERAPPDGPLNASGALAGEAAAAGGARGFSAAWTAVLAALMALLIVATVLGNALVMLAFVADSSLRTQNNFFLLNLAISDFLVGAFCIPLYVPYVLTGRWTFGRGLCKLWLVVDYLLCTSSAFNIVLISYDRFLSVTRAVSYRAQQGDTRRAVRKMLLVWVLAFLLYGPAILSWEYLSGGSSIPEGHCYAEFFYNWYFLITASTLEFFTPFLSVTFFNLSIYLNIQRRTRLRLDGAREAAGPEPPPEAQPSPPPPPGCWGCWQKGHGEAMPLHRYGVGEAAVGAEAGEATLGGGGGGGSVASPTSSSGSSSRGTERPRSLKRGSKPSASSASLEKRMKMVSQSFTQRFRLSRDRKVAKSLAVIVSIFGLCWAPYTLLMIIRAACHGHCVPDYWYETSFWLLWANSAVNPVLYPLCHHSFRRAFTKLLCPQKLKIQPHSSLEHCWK

Turning to `CS(=O)(=O)Nc1ccc(-c2ccc(-c3nc(CN4CCCC4)co3)cc2)cc1`, the Ki (commonly a dissociation constant, usually derived from enzyme kinetics or from competition with a known ligand) is 1.6 nM. Compound `COC[C@@H]1CCCN1CCc1nc(-c2ccc(-c3cccnc3)cc2)oc1C` displayed an inhibition constant Ki of 14.3 nM.
